Data reported in PubChem BioAssay AID2060897 (Molecular Pharmacology Branch, DTP, NCI, 2025).

System: 966289-007-R4-J1-PDC complex spheroid viability
Assay: Anticancer human tumor 966289-007-R4-J1-PDC patient-derived pancreatic adenocarcinoma cell line growth inhibition [RAS]
Settings: for IC50: curve of first compound; for viability, T/C: stronger effect = lower value
Excerpt: RAS pathway inhibitors in Combinations in Complex Spheroids
A high-throughput screen of multi-cell type tumor spheroids was designed to identify active combinations of RAS pathway inhibitors and targeted small molecules. Complex spheroids include a stromal component modeled by human endothelial cells (HUVEC) and fibroblasts modeled by human mesenchymal stem cells (MSCs). The concentration ranges selected for each drug and investigational agent were based upon clinically achievable concentrations if the clinical Cmax of the agent was known.
Compounds. The drugs and investigational agents: abemaciclib (NSC768073), cobimetinib (NSC768068), divarasib (GDC6063, NSC841802), docetaxel (NSC628503), GDC-1971 (RLY-1971, NSC841576), gemcitabine (NSC613327), inavolisib (NSC800729), ipatasertib (NSC767898), KB-0742 (NSC834161), MRTX-1133 (NSC836407), osimertinib (NSC779217), RMC-4630 (NSC839698), RMC-6236 (NSC851965), RMC-6291 (NSC852671), Ro-3306 (NSC812927), sapanisertib (NSC764658), SN-38 (NSC673596), staurosporine (NSC755774), SY5609 (NSC837396), and tovorafenib (DAY101, NSC766906), were obtained from the National Cancer Institute (NCI) Developmental Therapeutics Program Chemical Repository. The FDA-approved anticancer drug set is available from the NCI Developmental Therapeutics Program. […] The stock solutions were prepared in dimethyl sulfoxide (DMSO, Sigma-Aldrich, St. Louis, MO, cat. D2650) at 800-fold the tested concentration and stored at -70 degrees C prior to their use. All drugs and investigational agents were tested over a range starting from a high concentration at or near the clinical Cmax and decreasing in half-log increments. If the clinical Cmax for an agent had not been determined, the highest concentration tested was 10 microM.
Cell Culture. All cells were maintained in an incubator at 37 degrees C and 5% CO2 with 95% humidity. The PDC lines were cultured according to standard operating procedures established by the NCI PDMR. All PDCs were thawed and cultured in Matrigel-coated flasks prepared with a working solution of 1X Ham's F-12 nutrient mix, without supplementation (Invitrogen, Waltham, MA, cat. 11765054), 100 U/mL penicillin-streptomycin (Invitrogen, cat. 15140122), and 2.5% Matrigel (Corning Inc., Corning, NY, cat. 354248) for the first three passages. The 362531-283-R-J2-PDC and 782815-120-R-J1-PDC lines were cultured in 6C/Colon 1B media, which includes advanced DMEM/F-12 (Thermo Fisher Scientific, cat. 12634028), 10 mM HEPES (Thermo Fisher Scientific, cat. 15630080), 1X GlutaMAX supplement (Thermo Fisher Scientific, cat. 35050061), 0.1 mg/mL primocin (InvivoGen, San Diego, CA, cat. ant-pm-2), 10% defined fetal bovine serum, heat inactivated (HyClone Laboratories Inc., Logan, UT, cat. SH30070.03HI), 50% L-WRN conditioned media (ATCC, cat. CRL-3276), 1.25 mM N-Acetyl-L-cysteine (Sigma-Aldrich, cat. A9165), 10 mM nicotinamide (Sigma-Aldrich, cat. N0636), 1X B-27 supplement (Thermo Fisher Scientific, cat. 17504044), 1X N-2 supplement (Thermo Fisher Scientific, cat. 17502048), 50 ng/mL human EGF (Thermo Fisher Scientific, cat. PHG0311), and 10 microM Y-27632 dihydrochloride (Tocris Bioscience, cat. 1254). The K12877-001-R-J1-PDC line was cultured in 6I media, which includes all 6C/Colon 1B media plus 10 ng/mL human FGF-10 (PeproTech, cat. 100-26), 1 ng/mL human FGF-2 (PeproTech, cat. 100-18B), 1 µM prostaglandin E2 (Tocris Bioscience, cat. 2296), […] hydrocortisone (Sigma-Aldrich, cat. H4001), and […] bovine insulin (Sigma-Aldrich, cat. I6634). The K86415-001-R-J1-PDC line was cultured in 6D media, which includes all 6C/Colon 1B media components minus the L-WRN conditioned media. The 485176-168-R4-J1-PDC was cultured in PANC media, which includes all 6C/Colon 1B media plus 100 ng/mL human FGF-10 (PeproTech, cat. 100-26), 500 nM SB-431542 (Selleckchem, cat. S1067), and 10 nM gastrin (Tocris Bioscience, cat. 3006). […]

[1] = second compound 0.0316 µM, first compound 0.0316 µM
[2] = second compound 0.0316 µM, first compound 0.1 µM
[3] = second compound 0.1 µM, first compound 0.0316 µM
[4] = second compound 0.1 µM, first compound 0.1 µM
[5] = second compound 0.316 µM, first compound 0.0316 µM
[6] = second compound 0.316 µM, first compound 0.1 µM
[7] = second compound 1 µM, first compound 0.0316 µM
[8] = second compound 1 µM, first compound 0.1 µM
[9] = second compound 3.16 µM, first compound 0.0316 µM
[10] = second compound 3.16 µM, first compound 0.1 µM
[11] = second compound 10 µM, first compound 0.0316 µM
[12] = second compound 10 µM, first compound 0.1 µM
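Note: spheroids exposed to agents for one week before readout.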
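Throughout, for viability, T/C: percent viability relative to DMSO vehicle control wells as 100%.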

Compound: CC(C)NCC(C(=O)N1CCN(c2ncnc3c2C(C)CC3O)CC1)c1ccc(Cl)cc1 (centres undefined) + C#Cc1c(F)ccc2cc(O)cc(-c3ncc4c(N5CC6CCC(C5)N6)nc(OCC56CCCN5CC(F)C6)nc4c3F)c12
- IC50 (second compound 0.0316 µM): 6.4 µM
- IC50 (second compound 0.1 µM): 6.04 µM
- IC50 (second compound 0.316 µM): 5.61 µM
- IC50 (second compound 1 µM): 6.95 µM
- IC50 (second compound 3.16 µM): 5.64 µM
- IC50 (second compound 10 µM): 2.76 µM
- viability, T/C [1]: 98.7%
- viability, T/C [2]: 111%
- viability, T/C (second compound 0.0316 µM, first compound 0.316 µM): 108%
- viability, T/C (second compound 0.0316 µM, first compound 1 µM): 111%
- viability, T/C (second compound 0.0316 µM, first compound 3.16 µM): 66.9%
- viability, T/C (second compound 0.0316 µM, first compound 10 µM): 39.3%
- viability, T/C [3]: 103%
- viability, T/C [4]: 109%
- viability, T/C (second compound 0.1 µM, first compound 0.316 µM): 124%
- viability, T/C (second compound 0.1 µM, first compound 1 µM): 101%
- viability, T/C (second compound 0.1 µM, first compound 3.16 µM): 66.4%
- viability, T/C (second compound 0.1 µM, first compound 10 µM): 37.4%
- viability, T/C [5]: 106%
- viability, T/C [6]: 103%
- viability, T/C (second compound 0.316 µM, first compound 0.316 µM): 128%
- viability, T/C (second compound 0.316 µM, first compound 1 µM): 102%
- viability, T/C (second compound 0.316 µM, first compound 3.16 µM): 66.6%
- viability, T/C (second compound 0.316 µM, first compound 10 µM): 33.6%
- viability, T/C [7]: 104%
- viability, T/C [8]: 106%
- viability, T/C (second compound 1 µM, first compound 0.316 µM): 111%
- viability, T/C (second compound 1 µM, first compound 1 µM): 117%
- viability, T/C (second compound 1 µM, first compound 3.16 µM): 74.6%
- viability, T/C (second compound 1 µM, first compound 10 µM): 38.6%
- viability, T/C [9]: 116%
- viability, T/C [10]: 106%
- viability, T/C (second compound 3.16 µM, first compound 0.316 µM): 114%
- viability, T/C (second compound 3.16 µM, first compound 1 µM): 96.7%
- viability, T/C (second compound 3.16 µM, first compound 3.16 µM): 67.5%
- viability, T/C (second compound 3.16 µM, first compound 10 µM): 33%
- viability, T/C [11]: 110%
- viability, T/C [12]: 111%
- viability, T/C (second compound 10 µM, first compound 0.316 µM): 125%
- viability, T/C (second compound 10 µM, first compound 1 µM): 103%
- viability, T/C (second compound 10 µM, first compound 3.16 µM): 43%
- viability, T/C (second compound 10 µM, first compound 10 µM): 26.1%

Compound: CC(C)n1nc(-c2ccc3oc(N)nc3c2)c2c(N)ncnc21 + C#Cc1c(F)ccc2cc(O)cc(-c3ncc4c(N5CC6CCC(C5)N6)nc(OCC56CCCN5CC(F)C6)nc4c3F)c12
- IC50 (second compound 0.0316 µM): 0.0465 µM
- IC50 (second compound 0.1 µM): 0.0499 µM
- IC50 (second compound 0.316 µM): 0.0388 µM
- IC50 (second compound 1 µM): 0.0426 µM
- IC50 (second compound 3.16 µM): 0.0415 µM
- IC50 (second compound 10 µM): 0.0233 µM
- viability, T/C (second compound 0.0316 µM, first compound 0.000316 µM): 99.2%
- viability, T/C (second compound 0.0316 µM, first compound 0.001 µM): 96.8%
- viability, T/C (second compound 0.0316 µM, first compound 0.00316 µM): 91.8%
- viability, T/C (second compound 0.0316 µM, first compound 0.01 µM): 106%
- viability, T/C [1]: 61.8%
- viability, T/C [2]: 26.6%
- viability, T/C (second compound 0.1 µM, first compound 0.000316 µM): 104%
- viability, T/C (second compound 0.1 µM, first compound 0.001 µM): 99.4%
- viability, T/C (second compound 0.1 µM, first compound 0.00316 µM): 104%
- viability, T/C (second compound 0.1 µM, first compound 0.01 µM): 110%
- viability, T/C [3]: 67%
- viability, T/C [4]: 24.1%
- viability, T/C (second compound 0.316 µM, first compound 0.000316 µM): 111%
- viability, T/C (second compound 0.316 µM, first compound 0.001 µM): 103%
- viability, T/C (second compound 0.316 µM, first compound 0.00316 µM): 114%
- viability, T/C (second compound 0.316 µM, first compound 0.01 µM): 109%
- viability, T/C [5]: 56.3%
- viability, T/C [6]: 21%
- viability, T/C (second compound 1 µM, first compound 0.000316 µM): 108%
- viability, T/C (second compound 1 µM, first compound 0.001 µM): 118%
- viability, T/C (second compound 1 µM, first compound 0.00316 µM): 119%
- viability, T/C (second compound 1 µM, first compound 0.01 µM): 126%
- viability, T/C [7]: 59.7%
- viability, T/C [8]: 22%
- viability, T/C (second compound 3.16 µM, first compound 0.000316 µM): 108%
- viability, T/C (second compound 3.16 µM, first compound 0.001 µM): 113%
- viability, T/C (second compound 3.16 µM, first compound 0.00316 µM): 125%
- viability, T/C (second compound 3.16 µM, first compound 0.01 µM): 105%
- viability, T/C [9]: 58.7%
- viability, T/C [10]: 22.4%
- viability, T/C (second compound 10 µM, first compound 0.000316 µM): 97.4%
- viability, T/C (second compound 10 µM, first compound 0.001 µM): 94.1%
- viability, T/C (second compound 10 µM, first compound 0.00316 µM): 126%
- viability, T/C (second compound 10 µM, first compound 0.01 µM): 96.8%
- viability, T/C [11]: 33.2%
- viability, T/C [12]: 17%
